The text below walks through data of EP4772514A1, “MACROCYCLIC COMPOUNDS, PREPARATION METHOD THEREFOR, AND USE THEREOF” (Genfleet Therapeutics (Shanghai) Inc., priority 2023, dated 2025).

Common to all, as to type: cell-based
For test [1], the system named is NCI-H441 cells. The experiment in a line: 3D cell proliferation assay (CellTiter Glo-3D) in NCI-H441 cells. The following applies: Homo sapiens, NCI-H441, 120 h, NCI-H441, human lung cancer cell strain, KRAS G12V mutation; 3D culture, 2% FBS, 5 days; read-out: H441 AP IC50. The method, boiled down:
(§1)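 KRAS^G12V NCI-H441 and KRAS^G12D AsPC-1 cells (800 cells/well each) grown in RPMI-1640 with 2% FBS and treated the day after seeding with 3.16-fold compound dilutions (0.1% DMSO) for 5 days at 37 °C. Viability by CellTiter-Glo 3D luminescence; inhibition versus DMSO and cell-free controls, IC50 from four-parameter fit.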

The test system of test [2] is p-ERK. The experiment in a line: Cell p-ERK assay (HTRF, Advance ERK phospho-T202/Y204 kit) in AsPC-1 cells. Particulars: ASPC1; AsPC-1, human pancreatic cancer cell strain, KRAS G12D mutation; 3 h compound incubation. Summed up:
(§2)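 AsPC-1 (KRAS G12D) or NCI-H441 (KRAS G12V) cells seeded overnight, then treated 3 h at 37 °C with compound (0.1% DMSO) in RPMI-1640/10% FBS. Lysates assayed for ERK phospho-T202/Y204 by HTRF; inhibition vs DMSO and blank wells, IC50 from four-parameter fit.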

In test [3] the test system is AsPC-1 cells. The test can be described thus: 3D cell proliferation assay (CellTiter Glo-3D) in AsPC-1 cells. The following applies: ASPC1, 120 h; AsPC-1, human pancreatic cancer cell strain, KRAS G12D mutation; 3D culture, 2% FBS, 5 days; read-out: AsPC-1 AP IC50. The method, boiled down:
as §1

For test [4], the system named is p-ERK. The experiment in a line: Cell p-ERK assay (HTRF, Advance ERK phospho-T202/Y204 kit) in NCI-H441 cells. Particulars: Homo sapiens, NCI-H441, 3 h, NCI-H441, human non-small cell lung cancer cell strain, KRAS G12V mutation; 3 h compound incubation. Summed up:
as §2

Regarding `CCn1cc2c(c1-c1cc(N3CCN(C)CC3)cnc1[C@H](C)OC)CC(C)(C)COC(=O)[C@@H]1CCCN(N1)C(=O)[C@@H](NC(=O)[C@H]1[C@H](C)[C@@H]1C)Cc1nc(cs1)/C=C/2` (atropisomer, axis not shown) [Compound Z8A, (1r,2S,3R)-N-((4^2Z,8^3R,2E,6R)-1^1-ethyl-1^5-(2-((S)-1-methoxyethyl)-5-(4-methylpiperazin-1-yl)pyridin-3-yl)-12,12-dimethyl-7,9-dioxo-8^1,8^2,8^3,8^4,8^5,8^6-hexahydro-1^1H-10-oxa-4(4,2)-thiazola-8(1,3)-pyridazina-1(3,4)-pyrrolacyclotridecaphan-2-en-6-yl)-2,3-dimethylcyclopropane-1-carboxamide], the IC50 in test [1] was 3.98 nM; in test [2], 8.19 nM; in test [3], 3.71 nM; in test [4], 8.08 nM.

Turning to `CO[C@@H](C)c1ncc(C#CCN2CCS(=O)(=O)CC2)cc1-c1c2c(cn1C1CCCC1)/C=C/c1csc(n1)C[C@H](NC(=O)[C@H]1[C@H](C)[C@@H]1C)C(=O)N1CCC[C@H](N1)C(=O)OCC(C)(C)C2` (atropisomer, axis not shown; (Ra)) [Compound Z125, (1r,2R,3S)-N-((4^2Z,8^3S,2E,6S)-1^1-cyclopentyl-(Ra)-1^5-(5-(3-(1,1-dioxidothiomorpholino)prop-1-yn-1-yl)-2-((S)-1-methoxyethyl)pyridin-3-yl)-12,12-dimethyl-7,9-dioxo-8^1,8^2,8^3,8^4,8^5,8^6-hexahydro-1^1H-10-oxa-4(4,2)-thiazola-8(1,3)-pyridazina-1(3,4)-pyrrolycyclotridec-2-en-6-yl)-2,3-dimethylcyclopropane-1-carboxamide], the IC50 in test [1] worked out at 0.36 nM; in test [2], 0.51 nM; in test [3] it was 0.35 nM; in test [4] it was 0.53 nM.

Turning to `CO[C@@H](C)c1ncc(C#CCN2CCS(=O)(=O)CC2)cc1-c1c2c(cn1C(C)C)/C=C/c1csc(n1)C[C@H](NC(=O)[C@H]1[C@H](C)[C@@H]1C)C(=O)N1CCC[C@H](N1)C(=O)OCC(C)(C)C2` (single isomer, unassigned) [Compound Z10], the IC50 in test [1] came out at 0.42 nM; in test [2] it was 1.2 nM; in test [3], 0.56 nM; in test [4] it was 0.83 nM.

In the case of `CO[C@@H](C)c1ncc(C#CCN2CCC(C#N)(CN)CC2)cc1-c1c2c(nn1C(C)C)/C=C/c1csc(n1)C[C@H](NC(=O)[C@H]1[C@H](C)[C@@H]1C)C(=O)N1CCC[C@H](N1)C(=O)OCC(C)(C)C2` (atropisomer, axis not shown; (Ra)) [Compound Z62], the half-inhibitory concentration (IC50) is 4.56 nM in test [1], 4.9 nM in test [2], 5.12 nM in test [3] and 3.5 nM in test [4].

With `CCn1nc2c(c1-c1cc(C#CCN3CCC(C#N)CC3)cnc1[C@H](C)OC)CC(C)(C)COC(=O)[C@@H]1CCCN(N1)C(=O)[C@@H](NC(=O)[C@H]1[C@H](C)[C@@H]1C)Cc1nc(cs1)/C=C/2` (atropisomer, axis not shown; (Ra)) [Compound Z73, (1r,2R,3S)-N-((4^2Z,8^3S,2E,6S)-(Ra)-1^5-(5-(3-(4-cyanopiperidin-1-yl)prop-1-yn-1-yl)-2-((S)-1-methoxyethyl)pyridin-3-yl)-1^1-ethyl-12,12-dimethyl-7,9-dioxo-8^1,8^2,8^3,8^4,8^5,8^6-hexahydro-1^1H-10-oxa-4(4,2)-thiazola-8(1,3)-pyridazina-1(3,4)-pyrrolacyclotridecaphan-2-en-6-yl)-2,3-dimethylcyclopropane-1-carboxamide], the IC50 was determined as 0.91 nM in test [1], 1.73 nM in test [2], 1.34 nM in test [3] and 0.88 nM in test [4].
